Toxic doses and inconclusive results are not listed. No stated cut-off is given here; in the data, active means T/C of 150% or more; inactive means T/C below 125%.
Tested on: L1210 leukemia ip in BDF1 mice, survival T/C
Experiment: NCI In Vivo Anticancer Drug Screen. Data for tumor model L1210 Leukemia (intraperitoneal) in B6D2F1 (BDF1) mice
Conditions: endpoint: mean survival time, higher = longer survival
Method in brief: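 Read-out is survival time, reported as the treated-group measurement over the vehicle-control measurement.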

[1] = dose: 100.0 mg/kg/injection, schedule: Q01DX001 (ip), vehicle: carboxymethylcellulose (CMC)
[2] = dose: 200.0 mg/kg/injection, schedule: Q01DX001 (ip), vehicle: carboxymethylcellulose (CMC)
[3] = dose: 400.0 mg/kg/injection, schedule: Q01DX001 (ip), vehicle: carboxymethylcellulose (CMC)

Measured: T/C

Clc1ccc(/C=C/c2ccc3ccccc3n2)cc1
inactive: dose: 75.0 mg/kg/injection, schedule: Q01DX Z (ip), vehicle: carboxymethylcellulose (CMC) 96 % of control | dose: 113.0 mg/kg/injection, schedule: Q01DX Z (ip), vehicle: carboxymethylcellulose (CMC) 90 % of control | dose: 170.0 mg/kg/injection, schedule: Q01DX Z (ip), vehicle: carboxymethylcellulose (CMC) 88 % of control | dose: 255.0 mg/kg/injection, schedule: Q01DX Z (ip), vehicle: carboxymethylcellulose (CMC) 88 % of control

NC1=NC(=O)NC1(c1ccccc1)c1ccccc1
inactive: dose: 50.0 mg/kg/injection, schedule: Q01DX001 (ip), vehicle: carboxymethylcellulose (CMC) 94 % of control | [1] 100 % of control | [2] 89 % of control | [3] 116 % of control

CN(C)c1ccc(-c2cccc[n+]2C)cc1
inactive: dose: 1.56 mg/kg/injection, schedule: Q01DX009 (ip), vehicle: saline 104 % of control | dose: 3.13 mg/kg/injection, schedule: Q01DX009 (ip), vehicle: saline 103 % of control | dose: 6.25 mg/kg/injection, schedule: Q01DX009 (ip), vehicle: saline 104 % of control

CCCC(=O)C(CC)C(=O)Nc1ccccc1 (configuration not stated)
inactive: dose: 50.0 mg/kg/injection, schedule: Q04DX003 (ip), vehicle: Klucel (hydroxypropylcellulose) (HPC) 100 % of control | [1] 94 % of control | dose: 100.0 mg/kg/injection, schedule: Q04DX003 (ip), vehicle: Klucel (hydroxypropylcellulose) (HPC) 93 % of control | [2] 105 % of control | dose: 200.0 mg/kg/injection, schedule: Q04DX003 (ip), vehicle: Klucel (hydroxypropylcellulose) (HPC) 102 % of control | [3] 100 % of control

Source: PubChem BioAssay AID248 (DTP/NCI, 2004)
